Assay type in all cases: cell-based
The target in experiment [1] is DDR1 (Homo sapiens, UniProt Q08345). In words: Degradation of DDR1 in tumor cell MKN45 (Western blot). The conditions noted are these: MKN-45, maximum degradation percentage, MKN45 cells, 24 hours. Also noted: The degradation activity of the compounds against DDR1 in the MKN45 cell line; endogenous in cells; host or cells: MKN45. The method, then: Western blot experiment: Take gastric cancer cells (MKN45) and inoculate them into a 6-well plate at a concentration of […], adding 2 ml to each well and incubating for 24 hours.
The next day, observe the cells under a microscope to confirm their status. Prepare compounds, weigh a certain amount of the series compounds or reference drug cabozantinib from this patent, first prepare a high concentration mother liquor with pure DMSO, and use gradient dilution method to prepare compound concentrations of 2 mM, 200 μM, 100 μM, 20 μM, 2 μM, 200 nM, and 0 nM. The final concentration of DMSO is 0.5%. Shake to thoroughly mix. Add 10 μl of solution to each well. After incubation for 24 hours, remove the cells and use a pipette to aspirate the suspended cells into a 1.5 ml centrifuge tube. Centrifuge at 5000 rpm for 10 minutes to precipitate the cells. Carefully remove the cell precipitate from the culture medium, add 1 ml of PBS and shake slightly. After repeated cleaning for 3 times, dry the residue. Add 150 μl of RIPA lysate pre mixed with 1% PMSF, blow to allow the lysate to fully contact the cells, and incubate on ice for 10 minutes. Centrifuge at 12000 rpm for 10 minutes, extract the supernatant, use the BCA protein quantification kit to determine and homogenize the sample loading.
Mix BCA-A in a 50:1 ratio Prepare working solution with B solution, dilute the sample by 5 times, then pipette 20 μl onto a 96 well ELISA plate. Add 200 μl of pre mixed BCA working solution and incubate at 37° C. for 20 minutes. Measure the A562 nm absorbance value using an ELISA reader and substitute it into the protein standard curve formula to obtain the sample concentration. After calculating the required volume for loading […] of sample, divide the sample into 1.5 ml centrifuge tubes. Add 10 μl of sample buffer to each tube and mix well. Heat in a 95° C. metal bath for 5 minutes to denature the protein.
Take 4-20% gradient pre adhesive and fix it on the adhesive rack. Add electrophoresis solution to the slot and remove the comb, Marker and protein samples were loaded, and after 30 minutes of electrophoresis at 80V, the voltage was adjusted to 120V for electrophoresis, The marker band stops electrophoresis at the forefront of the gel. Take out the adhesive block and cut it to the appropriate size, The PVDF membrane was cut and activated in methanol, and after activation, the PVDF membrane was equilibrated in a membrane transfer equilibrium solution for 1 minute. Using sponge pads The sequence of PVDF film, adhesive, and sponge pad is placed in the splint and placed in the eBlot equipment for rapid wet rotation. Remove the membrane and seal it in 5% skim milk powder dissolved in 1×TBST for 1 hour. Cut the membrane according to the molecular weight of the target protein and internal reference protein, and place it in primary antibody diluted with 1×TBST. Shake overnight at 4° C.
The next day, transfer the band to 1×TBST for 3 washes, then add a specific dilution of the secondary antibody and shake it for 1.5 hours. Transfer the band again to 1×TBST for 3 washes, prepare ECL color solution, place the membrane in the imaging system, cover the surface with ECL color solution, and take photos of the membrane using the imaging system.
Using the SHST analysis system to analyze the results, measure the grayscale values of each band of the target protein and internal reference protein. Normalize the grayscale values of the target protein/corresponding lane GAPDH grayscale values, and perform quantitative analysis according to the protein amount=experimental group grayscale value/blank control group grayscale value.
The activity of the compound of the present invention in degrading DDR in tumor cell line MKN45 was measured. […]

The test system of experiment [2] is MKN45. In words: Growth inhibition of gastric cancer cells MKN45 (CCK-8). Particulars: Homo sapiens, MKN-45, half inhibitory concentration, 72 hours. How it is done:
(§1) Inoculate gastric cancer cells (SNU5 or MKN45) into a 96 well plate at a concentration of […], with 100 μl added to each well. Incubate for 30 minutes. Observe the cell status under a microscope. Prepare compounds, weigh a certain amount of the series compounds or reference drug cabozantinib of this patent, first prepare a high concentration mother liquor with pure DMSO, and use gradient dilution method to prepare a concentration of 200 μM, 60 μM, 20 μM, 6 μM, 2 μM, 600 nM, 200 nM, 0 nM drug solution, shake to make it fully mixed. The control group was prepared with cabozantinib using the same solvent and method.
(§2) After preparation, add 1 μl of drug solution to each well of the 96 well plate, and then add 100 μl of culture medium. Repeat each dose three times. Gently shake to allow the cells and medication to come into full contact and incubate in the incubator for 72 hours. 72 hours later, remove and color with CCK-8 reagent kit. Add 20 μl of CCK-8 reagent to each well, gently shake well, and incubate in the incubator for 1 hour. After 1 hour, remove and measure the absorbance of each well using an enzyme-linked immunosorbent assay (ELISA) reader at a wavelength of 450 nm.
(§3) According to the formula: Cell growth inhibition rate=[1−(absorbance of experimental group absorbance of culture medium control group)/(absorbance of blank control group−absorbance of culture medium control group)]×100%. It can be concluded that the compound has the ability to inhibit the growth of gastric cancer cells at the current dose and time.
(§4) Draw a graph based on the gradient of concentration and use GraphPad Prism 9 software (GraphPad Software, La Jolla, CA) to calculate the maximum inhibitory concentration (IC50) at 50%.
(§5) Referring to steps 1 and 2 of this embodiment, the inhibitory effect of the compound of the present invention on the growth of cancer cells and the degradation effect of target proteins were measured, and the following results were obtained (see Table 2 below).
(§6) The growth inhibitory effects of the compound of the present invention on tumor cell lines MKN45 and SNU5 were measured. The activity is expressed as half inhibitory concentration (C50). The results are shown in Table 2 below; When the half inhibitory concentration is less than or equal to 100 nM, the compound activity is labeled as “++++”; When the half inhibitory concentration is greater than 100 nM and less than 500 nM, the compound activity is labeled as […] and less than 1000 nM, the compound activity is labeled as “++”; When the half inhibitory concentration is greater than 1000 nM and less than 3000 nM, the compound activity is marked as “+”; When the half inhibitory concentration is greater than 3000 nM, the compound activity is marked as […]

The subject of experiment [3] is SNU5. In words: Growth inhibition of gastric cancer cells SNU5 (CCK-8). Particulars: Homo sapiens, SNU-5, half inhibitory concentration, 72 hours. The method, then: as §1, §2, §3, §4, §5, §6

Each structure is given as a SMILES string.

This note sets out measurements from patent US20240374738A1, “BIFUNCTIONAL COMPOUND CAPABLE OF DEGRADING RECEPTOR TYROSINE KINASE AND APPLICATION THEREOF” (TAIBIDI PHARMACEUTICAL TECHNOLOGY (SHIJIAZHUANG) CO., LTD., priority 2023, published 2024).

Chain of DDR1 (Q08345 19-913): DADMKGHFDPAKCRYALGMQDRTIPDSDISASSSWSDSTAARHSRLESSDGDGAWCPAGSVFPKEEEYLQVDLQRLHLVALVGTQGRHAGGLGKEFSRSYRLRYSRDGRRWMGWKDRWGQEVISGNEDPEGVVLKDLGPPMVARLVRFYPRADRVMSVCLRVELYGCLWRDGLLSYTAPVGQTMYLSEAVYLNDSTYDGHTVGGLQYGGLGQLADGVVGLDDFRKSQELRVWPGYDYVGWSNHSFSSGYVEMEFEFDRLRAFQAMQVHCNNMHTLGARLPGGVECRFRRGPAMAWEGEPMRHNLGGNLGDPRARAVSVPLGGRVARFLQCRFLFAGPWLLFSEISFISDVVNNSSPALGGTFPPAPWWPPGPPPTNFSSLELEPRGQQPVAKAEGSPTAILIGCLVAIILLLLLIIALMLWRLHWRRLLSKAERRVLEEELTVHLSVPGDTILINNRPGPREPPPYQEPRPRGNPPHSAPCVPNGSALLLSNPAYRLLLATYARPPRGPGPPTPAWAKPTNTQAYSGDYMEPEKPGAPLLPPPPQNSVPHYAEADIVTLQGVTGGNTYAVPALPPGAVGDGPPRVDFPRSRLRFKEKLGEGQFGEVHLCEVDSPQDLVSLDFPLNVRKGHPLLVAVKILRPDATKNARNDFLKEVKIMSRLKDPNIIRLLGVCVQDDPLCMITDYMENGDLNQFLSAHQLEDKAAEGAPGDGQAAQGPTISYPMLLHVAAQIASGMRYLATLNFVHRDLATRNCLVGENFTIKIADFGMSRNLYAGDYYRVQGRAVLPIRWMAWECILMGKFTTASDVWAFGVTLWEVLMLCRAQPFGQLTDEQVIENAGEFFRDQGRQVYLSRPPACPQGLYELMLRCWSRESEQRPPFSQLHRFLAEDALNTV

Usually Dmax stands for the largest share of the target that was removed. In general, IC50 refers to the midpoint of a concentration-inhibition curve. A lower IC50 goes with inhibition by little substance. In experiment [1], `COc1cc2c(Oc3ccc(NC(=O)C4(C(=O)Nc5ccc(F)cc5)CC4)cc3)ccnc2cc1N1CCC(CN2C3CC2CN(CCC(=O)Nc2cc4c(cn2)C(=O)N(C2CCC(=O)NC2=O)C4)C3)CC1` (stereo not drawn) [TPD12112] yielded a Dmax of 65 to 75%. Moreover, the IC50 in experiment [2] and in experiment [3] was at most 100 nM throughout.

As to `COc1cc2c(Oc3ccc(NC(=O)C4(C(=O)Nc5ccc(F)cc5)CC4)cc3)ccnc2cc1N1CCC(CN2CCN(CCNc3cccc4c3C(=O)N(C3CCC(=O)NC3=O)C4=O)CC2)CC1` (stereo not drawn) [TPD5972], in experiment [1], the Dmax was above 85%. Moreover, the IC50 in experiment [2] and in experiment [3] was at most 100 nM each time.

In experiment [1], `COc1cc2c(Oc3ccc(NC(=O)C4(C(=O)Nc5ccc(F)cc5)CC4)cc3)ccnc2cc1N1CCC(OCCC(=O)N[C@H](C(=O)N2C[C@H](O)C[C@H]2C(=O)NCc2ccc(-c3scnc3C)cc2)C(C)(C)C)CC1` [TPD5412] registered a Dmax of 65 to 75%. For the same compound, the IC50 in experiment [2] and in experiment [3] was 100 to 500 nM throughout.

`COc1cc2c(Oc3ccc(NC(=O)C4(C(=O)Nc5ccc(F)cc5)CC4)cc3)ccnc2cc1N1CCC(CN2C[C@H]3C[C@@H]2CN3CCCNc2cc3c(cn2)C(=O)N(C2CCC(=O)NC2=O)C3)CC1` (stereo partly drawn) [TPD12116]: the Dmax in experiment [1] was 75 to 85%. Besides, the IC50 in experiment [2] and in experiment [3] was at most 100 nM each time.

Take `Cc1nc(CCN2CCC(CN3CCN(c4ccc5c(c4)C(=O)N(C4CCC(=O)NC4=O)C5=O)CC3)CC2)cc(Nc2ncc(C(=O)Nc3c(C)cccc3Cl)s2)n1` (stereo not drawn) [TPD10051]: the Dmax in experiment [1] is above 85%. The IC50 in experiment [2] was at most 100 nM; in experiment [3], 500 to 1000 nM.

For the compound `COc1cc2c(Oc3ccc(NC(=O)C4(C(=O)Nc5ccc(F)cc5)CC4)cc3)ccnc2cc1N1CCC(CN2C[C@@H]3C[C@H]2CN3CCNc2cc3c(cn2)C(=O)N(C2CCC(=O)NC2=O)C3)CC1` (stereo partly drawn) [TPD12096], the Dmax in experiment [1] fell in the range of 65 to 75%. Besides, the IC50 in experiment [2] and in experiment [3] was at most 100 nM each time.

`COc1cc2c(Oc3ccc(NC(=O)C4(C(=O)Nc5ccc(F)cc5)CC4)cc3)ccnc2cc1N1CCC(CN2C[C@H]3C[C@@H]2CN3CC(=O)Nc2cc3c(cn2)C(=O)N(C2CCC(=O)NC2=O)C3)CC1` (stereo partly drawn) [TPD12101]: the Dmax in experiment [1] was above 85%. Further, the IC50 in experiment [2] and in experiment [3] was at most 100 nM each time.

Compound `COc1cc2c(Oc3ccc(NC(=O)C4(C(=O)Nc5ccc(F)cc5)CC4)cc3)ccnc2cc1N1CCC(NC(=O)C2(C(=O)N[C@H](C(=O)N3C[C@H](O)C[C@H]3C(=O)NCc3ccc(-c4scnc4C)cc3)C(C)(C)C)CC2)CC1` [TPD5424] returned a Dmax in experiment [1] of 65 to 75%. Also, the values for the 50% inhibitory concentration (IC50) in experiment [2] and in experiment [3] were 1000 to 3000 nM and 500 to 1000 nM, respectively.

`COc1cc2c(Oc3ccc(NC(=O)C4(C(=O)Nc5ccc(F)cc5)CC4)cc3)ccnc2cc1N1CCC(CN2CC(C(=O)N3C[C@H](O)C[C@H]3C(=O)NCc3ccc(-c4scnc4C)cc3)C2)CC1` [TPD5430] registered a maximal degradation (Dmax) in experiment [1] of 65 to 75%. The IC50 in experiment [2] and in experiment [3] was 1000 to 3000 nM in each case.

In experiment [1], `CNC(=O)c1ccc(-c2cnc3ncc(Cc4ccc5ncc(NC(=O)CN6CCC(CN7CCN(c8ccc9c(c8)C(=O)N(C8CCC(=O)NC8=O)C9=O)CC7)CC6)cc5c4)n3n2)cc1F` (stereo not drawn) [TPD7026] yielded a Dmax of 65 to 75%. The IC50 in experiment [2] and in experiment [3] was at most 100 nM in each case.

With `COc1cc2c(Oc3ccc(NC(=O)C4(C(=O)Nc5ccc(F)cc5)CC4)cc3)ccnc2cc1NC(=O)CN1CCC(CN2CCN(c3ccc4c(c3)C(=O)N(C3CCC(=O)NC3=O)C4=O)CC2)CC1` (stereo not drawn) [TPD5735], the Dmax in experiment [1] was 75 to 85%. For the same compound, the IC50 in experiment [2] lay in the range of 500 to 1000 nM; in experiment [3], 100 to 500 nM.

The compound `O=C1CCC(N2Cc3cc(NC(=O)CCN4CC5CC(C4)N5CC4CCN(c5cc6nccc(Oc7ccc(NC(=O)C8(C(=O)Nc9ccc(F)cc9)CC8)cc7)c6cc5OC(F)(F)F)CC4)ncc3C2=O)C(=O)N1` (stereo not drawn) [TPD12148] showed a maximal degradation (Dmax) in experiment [1] of 65 to 75%. The IC50 in experiment [2] and in experiment [3] was at most 100 nM throughout.

Consider `COc1cc2c(Oc3ccc(NC(=O)C4(C(=O)Nc5ccc(F)cc5)CC4)cc3)ccnc2cc1N1CCC(CN2C3CC2CN(CCC#Cc2ccc4c(c2)CN(C2CCC(=O)NC2=O)C4=O)C3)CC1` (stereo not drawn) [TPD12236], for which, in experiment [1], the Dmax lay in the range of 75 to 85%. The IC50 in experiment [2] and in experiment [3] was at most 100 nM in each case.

As for `CNC(=O)c1ccc(-c2cnc3ncc(Cc4ccc5ncc(C(=O)N6CCC(CN7CCN(CC(=O)N[C@H](C(=O)N8C[C@H](O)C[C@H]8C(=O)NCc8ccc(-c9scnc9C)cc8)C(C)(C)C)CC7)CC6)cc5c4)n3n2)cc1F` [TPD9006], the greatest degradation seen (Dmax) in experiment [1] lay within 75 to 85%. Besides, the IC50 in experiment [2] is at most 100 nM; in experiment [3] it was 100 to 500 nM.

In turn, `COc1cc2c(Oc3ccc(NC(=O)C4(C(=O)Nc5ccc(F)cc5)CC4)cc3)ccnc2cc1N1CCC(CN2C[C@@H]3C[C@H]2CN3CCC(=O)Nc2ccc3c(c2)CN(C2CCC(=O)NC2=O)C3=O)CC1` (stereo partly drawn) [TPD12218] gave a Dmax in experiment [1] of 65 to 75%. The IC50 in experiment [2] and in experiment [3] was at most 100 nM each time.

Turning to `COc1cc2c(Oc3ccc(NC(=O)C4(C(=O)Nc5ccc(F)cc5)CC4)cc3)ccnc2cc1N1CCC(CN2CCN(CCNc3cc4c(cn3)CN(C3CCC(=O)NC3=O)C4=O)CC2)CC1` (stereo not drawn) [TPD12009], the Dmax in experiment [1] is 65 to 75%. Besides, the IC50 in experiment [2] and in experiment [3] was at most 100 nM each time.

The compound `COc1cc2c(Oc3ccc(NC(=O)C4(C(=O)Nc5ccc(F)cc5)CC4)cc3)ccnc2c(F)c1N1CCC(CN2C3CC2CN(CCC(=O)Nc2cc4c(cn2)C(=O)N(C2CCC(=O)NC2=O)C4)C3)CC1` (stereo not drawn) [TPD12139] yielded a Dmax in experiment [1] of 75 to 85%. For the same compound, the IC50 in experiment [2] and in experiment [3] was at most 100 nM in each case.

With `COc1cc2c(Oc3ccc(NC(=O)C4(C(=O)Nc5ccc(F)cc5)CC4)cc3)ccnc2cc1N1CCC(CN2CCN(CCNc3cc4c(cn3)C(=O)N(C3CCC(=O)NC3=O)C4)CC2)CC1` (stereo not drawn) [TPD12003], the Dmax in experiment [1] lay in the range of 75 to 85%. Moreover, the 50% inhibitory concentration (IC50) in experiment [2] and in experiment [3] was at most 100 nM throughout.
